{"source": "patent US6423508B1", "about": "“Polynucleotide sequences of human EDG-1c” (SmithKline Beecham Corporation, priority 1998, dated 2002)", "key": {"human EDG-1c receptor [1]": {"target": "T1, human EDG-1c receptor (Homo sapiens, UniProt P21453)", "T1 construct": "expressed in transfected cells", "T1 sequence (P21453 whole entry)": "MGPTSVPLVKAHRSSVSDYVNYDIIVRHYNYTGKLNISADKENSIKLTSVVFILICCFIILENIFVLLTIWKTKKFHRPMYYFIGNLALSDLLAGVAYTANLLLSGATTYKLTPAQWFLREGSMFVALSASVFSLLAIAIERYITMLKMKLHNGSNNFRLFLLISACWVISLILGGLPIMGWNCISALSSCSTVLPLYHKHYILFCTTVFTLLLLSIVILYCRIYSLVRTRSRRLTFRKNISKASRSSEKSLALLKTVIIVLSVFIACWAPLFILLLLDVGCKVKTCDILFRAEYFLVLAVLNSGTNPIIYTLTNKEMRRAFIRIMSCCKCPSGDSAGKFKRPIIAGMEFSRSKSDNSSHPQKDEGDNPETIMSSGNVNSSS", "test": "Calcium mobilization in RBL 2H3 cells stably transfected with human EDG-1c receptor (FLIPR)", "format": "cell-based", "method": "(§1) A number of cell lines were examined to identify one that would not respond to S-1-P through an endogenous receptor. […] Stable cell lines of the EDG1-c receptor were prepared in RBL 2H3 cell line. The expression of functionally active clones were followed using Fluorescent imaging plate reader (FLIPR)."}, "[2]": {"system": "endogenous receptors of RBL 2H3 cells", "test": "Responses of control ligands of endogenous receptors in RBL 2H3 EDG-1c cells (calcium mobilization, FLIPR)", "format": "cell-based", "conditions": "FIG. 8", "method": "as §1"}, "human EDG-1c receptor [3]": {"target": "T1, human EDG-1c receptor", "test": "S-1-P-induced FUS1-LacZ reporter gene expression in yeast expressing human EDG-1c", "format": "cell-based", "conditions": "yeast FUS1-LacZ cells expressing human EDG-1c, FIG. 5", "source_text": "The yeast strain(s) used contain mutations in genes in the pheromone response pathway, e.g., (i) deletion of the STE2 or STE3 gene encoding the endogenous G-protein coupled pheromone receptors; (ii) deletion of the FAR1 gene encoding a protein that normally associates with cyclin-dependent kinases leading to cell cycle arrest; and (iii) construction of reporter genes fused to the FUS1 gene promoter (where FUS1 encodes a membrane-anchored glycoprotein required for cell fusion). The downstream reporter (FUS1-LacZ) permits a colorimetric or fluorimetric readout in response to ligand."}, "[4]": {"system": "rat neonatal cardiomyocytes", "test": "Cellular hypertrophy in rat neonatal cardiomyocytes in culture", "format": "cell-based", "method": "[…] was tested in its ability to induce hypertrophy in an in vitro neonatal cardiomyocyte model. The assessment of cardiomyocyte hypertrophy is measured using four different parameters: protein synthesis (tritiated phenylalanine incorporation and protein content increase), tritiated thymidine incorporation (evaluation of fibroblast contamination), Brain Natriuretic Peptide (BNP) release and morphological parameters. Phenylephrine (PE) at 100 μM concentration is used as internal control experiments. […] Cardiomyocytes in culture display features of myocyte hypertrophy observed in vivo, such as changes in morphology (vizualised using light microscopy after staining with crystal violet), protein content, and pattern of gene expression."}, "[5]": {"system": "untransfected HEK 293 cells (endogenous receptors that respond to S-1-P)", "test": "S-1-P-induced Ca2+ mobilization in untransfected HEK 293 cells (FLIPR)", "format": "cell-based", "conditions": "FIG. 3", "source_text": "The data were generated with the 96 well Fluorescent Imaging Plate Reader (FLIPR). Each point is the mean of 6-8 wells read on FLIPR."}, "[6]": {"system": "isolated perfused rabbit heart", "test": "Functional effects on isolated perfused rabbit heart", "conditions": "10 nM", "method": "The functional effects of […] have been examined in isolated perfused rabbit heart. […] An increased in AoP (aortic pressure), reflecting a vasoconstrictor effect was observed, i.e., about 30% of increase at 5 min of treatment compared to the vehicle (methanol 0.001%)."}}, "note": "Where two headings read alike, the source gives them in different places.", "data": [{"molecule": "CCCCCCCCCCCCCCCC(O)C(N)COP(=O)(O)O", "note": "(stereo not drawn) [dihydro-S-1-P, di-hydro sphingosine 1-phosphate]", "values": [{"measurement": "EC50", "setting": "human EDG-1c receptor [1]", "value": "10 to 20", "unit": "nM"}]}, {"molecule": "C[C@@H]1O[C@H](C[N+](C)(C)C)C[C@H]1O", "note": "[Muscarine]", "values": [{"measurement": "response of RBL 2H3 EDG-1c cells to control ligand", "setting": "[2]", "value": "did not respond"}]}, {"molecule": "Nc1ncnc2c1ncn2[C@@H]1O[C@H](COP(=O)(O)OP(=O)(O)OP(=O)(O)O)[C@@H](O)[C@H]1O", "note": "[ATP]", "values": [{"measurement": "EC50 of endogenous-receptor ligands", "setting": "[2]", "value": "expected EC50 values"}]}, {"molecule": "lysophosphatidic acid", "values": [{"measurement": "calcium mobilization response of RBL 2H3 EDG-1c cells", "setting": "human EDG-1c receptor [1]; best clones, FIG. 8", "value": "did not respond"}]}, {"molecule": "CCCCC/C=C\\C\\C=C/C=C/C=C/[C@@H](SC[C@H](N)C(=O)NCC(=O)O)[C@@H](O)CCCC(=O)O", "note": "[leukotriene D4]", "values": [{"measurement": "EC50 of endogenous-receptor ligands", "setting": "[2]", "value": "expected EC50 values"}]}, {"molecule": "CCCCCCCCCCCCC/C=C/[C@@H](O)[C@@H](N)COP(=O)(O)O", "note": "[S-1-P, sphingosine 1-phosphate]", "values": [{"measurement": "expression of beta-galactosidase (FUS1-LacZ reporter response)", "setting": "human EDG-1c receptor [3]", "value": "receptor-dependent response"}, {"measurement": "cellular hypertrophy (increase of protein content, phenylalanine incorporation and BNP secretion to control cell values)", "setting": "[4]; 10 nM, 100 nM and 1 μM (n=3), each concentration", "value": "induced a cellular hypertrophy"}, {"measurement": "increase of phenylalanine incorporation to the control cell values", "setting": "[4]; 1 μM (n=3)", "value": "30.1%±9.2"}, {"measurement": "increase of protein content to the control cell values", "setting": "[4]; 1 μM (n=3)", "value": "35.6%±6.3"}, {"measurement": "increase of thymidine incorporation to the control cell values", "setting": "[4]; 1 μM (n=3)", "value": "11.4%±1.8"}, {"measurement": "BNP secretion vs. control", "setting": "[4]; S-1-P treated cardiomyocyte vs. control", "value": "four fold higher"}, {"measurement": "EC50", "setting": "human EDG-1c receptor [1]; several RBL 2H3 EDG1-c clones, FIG. 7, read-out: EC50, calcium mobilization, best clones", "value": "10 to 20", "unit": "nM"}, {"measurement": "calcium mobilization response", "setting": "[5]", "value": "robust calcium mobilization response"}, {"measurement": "LVEDP (left ventricular end-diastolic pressure)", "setting": "[6]", "value": "marked reduction"}, {"measurement": "increase in AoP (aortic pressure), vasoconstrictor effect", "setting": "[6]; at 5 min of treatment, compared to the vehicle (methanol 0.001%)", "value": "about 30%"}, {"measurement": "inotropic effect (pressure value)", "setting": "[6]; at 10 min of drug administration, controls 96.09±6 mm Hg", "value": "84.7±6.3", "unit": "mm Hg"}]}, {"molecule": "sphingosine phosphorylcholine", "values": [{"measurement": "EC50, calcium mobilization through the EDG1-c receptor (in words)", "setting": "human EDG-1c receptor [1]; best clones, FIG. 8", "value": "in the uM range"}, {"measurement": "calcium mobilization response of RBL 2H3 EDG-1c cells", "setting": "human EDG-1c receptor [1]; best clones, FIG. 8", "value": "weakly"}]}]}
